Reference: US20260315436A1, “METHOD OF TREATING DISORDERS WITH SURF1 MALFUNCTION” (Cure Mito Foundation, priority 2023, published 2026)
“Also recorded” adds a separate entry of the source.

What was measured:
Type in all cases: cell-based, human
SURF1-mutant neurons = test: Neurite outgrowth in SURF1-mutant neurons (MAP2 high-content imaging)
Procedure: The effect of Sertaconazole in human neurons carrying mutations in the gene SURF1 was measured. Hit compounds were filtered and selected to test their effect on neuronal morphogenesis. CRISPR/Cas9 engineered isogenic SURF1 mutant iPSCs on which neural commitment via overexpression of NGN2 was forced were used.
(§1) FIG. 28A depicts quantification of total neurite area in SURF1-mutant neurons. Each value represents the total neurite area in each well of a 96-well plate. Significant values were calculated using the non-parametric Mann-Whitney test and defective neurite development in SURF1-mutant cells was found FIG. 28B depicts quantification of total neurite area in SURF I-mutant neurons treated with either the DMSO vehicle or Sertaconazole at different concentrations. Neurite area was measured 5 days after induction of NGN2 overexpression, using high-content image analysis of MAP2-positive stained neuronal cells. Each value represents the total neurite area in each well of a 96-well plate.
Hit compounds were filtered and selected to test their effect on neuronal morphogenesis CRISPR/Cas9 engineered isogenic SURF1 mutant iPSCs on which neural commitment via overexpression of NGN2 was forced were used.
as §1, with “plate. […]” for “plate. Significant values were calculated using the non-parametric Mann-Whitney test and defective neurite development in SURF1-mutant cells was found”, “in SURF1-mutant” for “in SURF I-mutant”, “plate. […] FIG. 28C depicts representative images of SURF1 mutant neurons treated with either the DMSO vehicle or Sertaconazole.” for “plate.”

[1] = tested on: SURF1-mutant midbrain organoids; test: Lactate released in the media by SURF1-mutant midbrain organoids; settings: 0.1 μM, 1 week; vs DMSO; Mann-Whitney ****p<0.0001
Procedure: (§2) The effect of Sertaconazole in brain organoids carrying mutations in the gene SURF1 was measured.
(§3) FIG. 29A depicts lactate released in the media by SURF1-mutant midbrain organoids compared to isogenic control organoids. There is an aberrant increase of lactate release by SURF1-mutant organoids. FIG. 29B depicts quantification of lactate in the media of SURF1-mutant midbrain organoids that were treated with either DMSO vehicle or 0.1 μM Sertaconazole for 1 week. […] SURF1-mutant midbrain organoids were treated with either the DMSO vehicle or 0.1 μM Sertaconazole for 1 week. […] FIG. 29D depicts representative images of SURF1-mutant midbrain organoids treated with either the DMSO vehicle or Sertaconazole.
FIG. 29A depicts lactate released in the media by SURF1-mutant midbrain organoids compared to isogenic control organoids. The amount of lactate was quantified using a commercial kit. […] FIG. 29B depicts quantification of lactate in the media of SURF1-mutant midbrain organoids that were treated with either DMSO vehicle or 0.1 μM Sertaconazole for 1 week Media was collected and analyzed for lactate content using a commercial kit. […] SURF1-mutant midbrain organoids were treated with either the DMSO vehicle or 0.1 μM Sertaconazole for 1 week. […] Significant values were calculated using the non-parametric Mann-Whitney test. […]

[2] = tested on: SURF1-mutant midbrain organoids; test: Neuronal staining (TH, MAP2, SMI312) in SURF1-mutant midbrain organoids
Procedure: as §2, §3
FIG. 29A depicts lactate released in the media by SURF1-mutant midbrain organoids compared to isogenic control organoids. The amount of lactate was quantified using a commercial kit. […] FIG. 29B depicts quantification of lactate in the media of SURF1-mutant midbrain organoids that were treated with either DMSO vehicle or 0.1 μM Sertaconazole for 1 week Media was collected and analyzed for lactate content using a commercial kit. […] SURF1-mutant midbrain organoids were treated with either the DMSO vehicle or 0.1 μM Sertaconazole for 1 week. The organoids were then fixed and stained with antibodies against Tyrosine Hydroxylase (TH) (a marker of dopaminergic neurons), MAP2 (a marker for neuronal dendrites), and SMI312 (a marker for neuronal axons). Significant values were calculated using the non-parametric Mann-Whitney test. […] Sertaconazole can represent an effective repositionable drug for children affected by Leigh syndrome.

[3] = tested on: GM28010 SURF1 mutant fibroblasts; test: Seahorse mitochondrial stress test, fibroblast cell line GM28010 (Experiment 1, single compounds); settings: 48 h
Procedure: (§4) In order to evaluate selected compounds' impact on mitochondrial function in patient-derived fibroblasts compared to controls, three seahorse assays were conducted, Exp. 1: Fibroblast cell line GM28010—single compounds; Exp. 2. Fibroblast cell line GM28010—combination of compounds+ Single compounds; and Exp. 3: Fibroblast cell line GM28012—single compounds. Seahorse XF24 Extracellular Flux Analyzers continuously measure oxygen concentration and proton flux in the cell supernatant over time (Wu et al., 2007). The oxygen concentration and proton flux measurements are converted in OCR and ECAR values. This enables a direct quantification of mitochondrial respiration and glycolysis. The aim of the seahorse assays is to evaluate the impact of selected compounds on mitochondrial function in patient-derived fibroblasts compared to controls. Compounds used in the seahorse assays include posacanazole, sertaconazole, glabridin, zinglibroside (ginsenoside Z R1), AM281, cysteamine bitrartate, PF-06447475, losmapimod, telepravir, miltefosine, incyclinide, poziotinib, and methylene blue.
Fibroblast cell line GM28010 is a primary human fibroblast cell line obtained from patients with SURF1 Leigh syndrome. It was purchased from the Coriell Cell Repositories (Camden, NJ, repository number GM28010). Cell line GM00038 was used as a healthy control for GM28010 and is a primary human fibroblast purchased from the Coriell Cell Repositories (Camden, NJ, repository number GM00038).
Fibroblasts were grown in glucose according to recommendation.
Cells were plated in XF96 plates in culture medium and were plated at 10,000 cells/well.
The day after plating, cells were treated with the compounds in Table 1. The treatments were completed in glucose medium and galactose medium. The compounds were tested at for 48 hours. The compounds were incubated at (37 C, 5% CO2) until the day of the experiment.
*Fibroblasts were run at passage numbers: GM28010 SURF1 Fibroblasts P5; GM00038F controls P9.
• Assay Medium: 10 mM glucose or galactose DMEM supplemented with 2 mM glutamine and 1 mM pyruvate. • Injection Ports for basal glucose: Port A: 2 μM oligomycin; Port B: 2.5 μM FCCP; Port C: 4 μM FCCP; and Port D: 2 μM rotenone and antimycin A.
Data were normalized to cell number per well after the run. The Hoechst-stained nuclei were counted with the Operetta High-Content Imager.
(§5) • Basal Oxygen Consumption (OCR): This reflects the cellular oxygen usage under basal conditions, encompassing both energy production (ATP turnover) and background oxygen leak from the mitochondria. • Oligomycin Injection: Oligomycin is a compound that inhibits ATP synthase, an enzyme crucial for ATP production within mitochondria. • Oligomycin-resistant Respiration: After oligomycin injection, minimal oxygen consumption persists, representing non-ATP linked oxygen leak from the mitochondria, often termed proton leak. • ATP-linked Respiration: This value is derived by subtracting the oligomycin-resistant respiration from the basal OCR. It signifies the oxygen consumption specifically linked to ATP production through mitochondrial oxidative phosphorylation. • Mitochondrial Bioenergetic Efficiency: This parameter reflects the percentage decrease in oxygen consumption observed after oligomycin injection, indicating the mitochondria's efficiency in utilizing oxygen for ATP generation. • FCCP Injection: FCCP is a chemical that disrupts the link between mitochondrial electron transport and ATP production. • Maximal Respiration: Following FCCP injection, the highest oxygen consumption rate is measured, representing the maximum capacity of the mitochondria to utilize oxygen for respiration. • Spare Respiratory Capacity: This parameter is calculated by subtracting basal respiration from maximal respiration.

[4] = tested on: GM28012 SURF1 fibroblasts; test: Seahorse mitochondrial stress test, fibroblast cell line GM28012 (Experiment 3, single compounds); settings: 48 h
Procedure: as §4, §5
GM28010 primary human fibroblasts obtained from patients with SURF1 Leigh syndrome were purchased from the Coriell Cell Repositories (Camden, N.J.; repository number GM28010).
GM00038 primary human fibroblasts purchased from the Coriell Cell Repositories (Camden, N.J., repository number GM00038) and were used as a healthy control.
Fibroblasts were grown in glucose according to recommendation. Cells were plated in XF96 plates in culture medium and plated at 10,000 cells/well. The day after plating, the cells were treated with the compounds. The treatments completed in glucose medium and galactose medium. The compounds were tested at for 48 hours. The compounds were incubated at (37 C, 5% CO2) until the day of the experiment. The fibroblasts were run at passage numbers: GM28012 SURF1 Fibroblasts P5.
The assay medium was 10 mM glucose or galactose DMEM supplemented with 2 mM glutamine and 1 mM pyruvate. Injection Ports for basal glucose: Port A: 2 μM oligomycin; Port B: 2.5 μM FCCP; Port C: 4 μM FCCP; and Port D: 2 μM rotenone and antimycin A.
The data were normalized to cell number per well after the run. The Hoechst-stained nuclei were counted with a Operetta High-Content Imager.

[5] = glucose and galactose conditions

`Clc1ccc(C(Cn2ccnc2)OCc2csc3c(Cl)cccc23)c(Cl)c1` (stereo not shown) [Sertaconazole, sertaconazole] was tested, and the “total neurite area (defective neurite development in SURF1-mutant cells)” value (SURF1-mutant neurons; 5 days after NGN2 induction, vs DMSO, Mann-Whitney **p<0.01) was “correction of defective neurite development”, the “neuromorphogenesis defects in SURF1-mutant neurons” value (SURF1-mutant neurons; FIG. 28) was “ameliorates neuromorphogenesis defects” and the “rescue of neurite outgrowth capacity” value (SURF1-mutant neurons; NGN2-induced SURF1 mutant neurons, FIG. 28) was “dose-dependent rescue of neurite outgrowth capacity”. For the same compound, the “amount of lactate released to the media” value [1] was “reduced the aberrant release of lactate; also recorded: decreases the aberrant amount of lactate”, the “amount of TH-positive dopaminergic neurons” value ([2]; 0.1 μM, 1 week, vs DMSO) was “increased the amount of TH-positive dopaminergic neurons; also recorded: increase in TH neurons was evident but did not reach statistical significance” and the “overall neuronal branching organization” value ([2]; 0.1 μM, 1 week, vs DMSO) was “rescued the overall neuronal branching organization”. For the same compound, the “amount of neuronal processes” value ([2]; 0.1 μM, 1 week, vs DMSO, Mann-Whitney *p<0.05) was “corrected the increased the amount of neuronal processes”, the “neuromorphogenesis and lactate defects in SURF1-mutant midbrain organoids” value ([2]; FIG. 29) was “ameliorates neuromorphogenesis and lactate defects” and the ATP production [3] was “no effect on ATP production”. The “maximal OCR” value ([3]; all concentrations) was “↓ maximal OCR@ all conc;”, the respiration [3, 5] was “did not result in major changes” and the respiration [4, 5] was “decreased respiration”. For the same compound, the “ATP production through glycolysis” value ([4]; higher concentrations) was “increased ATP production through glycolysis; also recorded: lower concentration; ↑ATP”.
